Like-named read-outs stand apart in the source and are kept apart here.
How the values were obtained:
[1] = target: T1, HSP72/BAG1 complex (Homo sapiens, UniProt P0DMV8); test: FP competition assay, displacement of bisaryl-ATTO-488 11 from secondary HSP72/BAG1 complex; format: binding; conditions: for change in affinity for HSP72/BAG1 complex compared to primary protein: 700 nM BAG1
T1 construct: purchased Enzo Life Sciences (BAG-1M only)
Experimental: (§1) To assess what effect the secondary HSP72/BAG1 complex had on the apparent affinity of the non-nucleotide bisaryl-ATTO-488 FP-probe 11, we carried out a similar BAG1 study. […] To confirm that the binding of BAG1 to HSP72 was not mutually exclusive, we screened the nucleotides ADP and ATP in a competition assay with bisaryl-ATTO-488 11 and HSP72 at a 50% bound fraction, with and without a saturating concentration of BAG1 (700 nM) (Fig. S7, ESI ^†). […]
(§2) Compound screen with and without BAG-1: Compounds (0.2 μL at 50 x screening concentration in DMSO) were dispensed using an ECHO 550 Liquid Handler (Labcyte Inc.). To the corresponding wells was added, 5 μL of probe molecule (20 nM in assay buffer), 2.5 μL of HSP72 (four times final concentration in assay buffer) and either 2.5 µL of BAG-1 (2.8 µM in 20 mM TRIS base pH 7.4, 100 mM NaCl, 1 mM DTT, 1% (v/v) glycerol) or 2.5 µL of BAG1 replacement buffer (20 mM TRIS base pH 7.4, 100 mM NaCl, 1 mM DTT, 1% (v/v) glycerol). The assay was performed in duplicate. Tracer controls (10 nM probe molecule only) and bound tracer controls (10 nM probe in the presence of appropriate protein concentration) were included on each assay plate.
IC50 determination was performed using non-linear least squares curve fitting (GraphPad Prism 6, log(inhibitor) vs. response— variable slope (four parameters)). […]
Fig. S8. Representative competitive binding curves for ADP (A), ATP (B), compound 12 (C) and compound 13 (D) in the presence and absence of BAG1. Competition experiments in the presence of BAG1 (red) were performed using 10 nM biaryl-ATTO-488, 700 nM BAG1 and 140 nM HSP70 to give a 50% bound fraction. Competition experiments in the absence of BAG1 (blue) were performed using 10 nM biaryl-ATTO-488 and 180 nM HSP70 to give a 50% bound fraction. IC50 determination was performed using non-linear regression analysis (log(inhibitor) vs. response - Variable slope (four parameters)), all data points were tested in duplicate and are represented as the arithmetic mean ± SEM.

[2] = target: T2, HSP72 (Homo sapiens, UniProt P0DMV8); test: FP competition assay, displacement of bisaryl-ATTO-488 11 from primary HSP72 protein; format: binding
T2 construct: made in house
T2 sequence (P0DMV8 whole entry): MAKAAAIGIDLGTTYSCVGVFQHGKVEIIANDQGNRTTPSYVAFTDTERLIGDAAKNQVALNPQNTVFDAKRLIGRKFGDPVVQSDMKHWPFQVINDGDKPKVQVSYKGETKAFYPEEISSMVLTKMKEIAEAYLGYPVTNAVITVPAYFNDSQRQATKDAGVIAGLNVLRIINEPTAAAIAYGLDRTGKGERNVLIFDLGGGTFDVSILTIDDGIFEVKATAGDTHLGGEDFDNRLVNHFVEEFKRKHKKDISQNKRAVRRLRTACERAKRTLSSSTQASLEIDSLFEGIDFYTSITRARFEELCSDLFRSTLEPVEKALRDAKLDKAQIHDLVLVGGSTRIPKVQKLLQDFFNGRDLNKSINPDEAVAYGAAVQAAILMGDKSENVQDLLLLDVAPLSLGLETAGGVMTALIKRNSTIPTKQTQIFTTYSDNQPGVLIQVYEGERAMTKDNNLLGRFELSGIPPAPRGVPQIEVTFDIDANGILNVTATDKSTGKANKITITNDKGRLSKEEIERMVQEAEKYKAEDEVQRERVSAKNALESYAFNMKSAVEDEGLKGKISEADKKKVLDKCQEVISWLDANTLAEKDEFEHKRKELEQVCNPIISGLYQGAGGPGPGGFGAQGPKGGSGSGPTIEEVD
Experimental: as §1
(§3) TRIS Tris(hydroxymethyl)aminomethane
(§4) General Information: Unless otherwise stated the aqueous assay buffer contained 50 mM TRIS base pH 7.4, 150 mM NaCl, 6 mM MgCl2, 1 mM DTT, 0.1% (wt/wt) CHAPS. The assay was conducted using 384 Plus F ProxiPlates (PerkinElmer) with a final assay volume of 10 μL. Plates were centrifuged at 1000 rpm for 1 minute prior to incubation and read using an 2103 Envision Multilable Plate Reader. Excitation and emission wavelengths used for green probes were 480 nm and 535 nm, respectively.
Fluorescence polarisation was measured in units of millipolarization (mP). All experiments were performed in triplicate, unless otherwise stated. Data were plotted and analysed using GraphPad Prism 6, graphical data represents the mean ± standard error of the mean for a single representative experiment. ATP-derived fluorescent probes (1.0 mM in aqueous) were purchased from Jena Bioscience. Human BAG-1M (10.9 μM in 20 mM TRIS base pH 7.4, 100 mM NaCl, 1 mM DTT, 1% (v/v) glycerol) was purchased from Enzo Life Sciences. […]
Compound IC50 determination: Compounds (0.2 μL at 50 x screening concentration in DMSO) were dispensed using an ECHO 550 Liquid Handler (Labcyte Inc.). To the corresponding wells was added, 5 μL of probe molecule (20 nM in assay buffer) and 5 μL of protein (two times their final concentration in assay buffer) to give a 50% bound fraction. Tracer controls (10 nM probe molecule only) and bound tracer controls (10 nM probe in the presence of appropriate protein concentration) were included on each assay plate. IC50 determination was performed using non-linear least squares curve fitting (GraphPad Prism 6, log(inhibitor) vs. response— variable slope (four parameters)). […]
as §2
IC50 determination was performed using non-linear least squares curve fitting (GraphPad Prism 6, log(inhibitor) vs. response— variable slope (four parameters)).
Fig. S1. Determination of assay binding window for bisaryl-ATTO-488 and ATP-ATTO-488. Polarisation values (mP) for 2-63 nM ATP-ATTO-488 (red) and bisaryl ATTO-488 (blue) in the presence (▼) and absence (▲) of 5 µM HSP72, ↔ represents the assay window at 10 nM probe concentration. All data points were tested in triplicate and are represented as the arithmetic mean ±

[3] = target: HSP72-NBD; design: method as in PMID 19256508; conditions: reported affinity for HSP72-NBD by surface-plasmon resonance; cited from earlier work
[4] = target: T2, HSP72; test: FP assay binding window and Z' determination
From the text: As a result, the assay was not statistically robust, so could not be used in competition experiments (Z′ = 0.36).[11],[20],[21] We hypothesised that the high lipophilicity of 10 (clog P = 6.9) was causing the small binding window, either due to aggregation, even at very low concentrations, or its large hydrate volume.[22] Because the lipophilicity of the specific-ligand portion of the probe was fixed by the need for high affinity to the HSP70 target, we focused on changes to the solvent exposed fluorophore. ATTO-488, a green-shifted fluorophore that contains two sulfonic acid groups, was selected as an alternative to fluorescein (see ESI ^†), as this reduced the clog P of the bisaryl probe 11 to –3.9.[21] The binding window of ATTO-488 bisaryl FP-probe 11 measured at a fixed and apparently saturating concentration of HSP72 (5 μM), was now greater than 150 mP (Z′ = 0.63, Fig. 3A and Fig. S1, ESI ^†). […]
as §3, §4
Fluorescence polarisation was measured in units of millipolarization (mP). All experiments were performed in triplicate, unless otherwise stated. Data were plotted and analysed using GraphPad Prism 6, graphical data represents the mean ± standard error of the mean for a single representative experiment. ATP-derived fluorescent probes (1.0 mM in aqueous) were purchased from Jena Bioscience. Human BAG-1M (10.9 μM in 20 mM TRIS base pH 7.4, 100 mM NaCl, 1 mM DTT, 1% (v/v) glycerol) was purchased from Enzo Life Sciences.
Determination of optimal probe concentration: To each well, 5 μL of HSP72 (10 µM in assay buffer) or 5 μL assay buffer and increasing concentrations of probe (5 μL, two-fold dilution series) were added. Fluorescence polarisation values for the tracer ± protein were plotted using GraphPad prism 6. […]
Z’ determination: To each well, 5 µL of probe (20 nM in assay buffer) and either 5 µL of HSP70 (in assay buffer) or 5 µL of assay buffer were added. Fluorescent polarisation values from 96 wells were used to calculate the mean and standard deviation for each data set. Z’-factors were calculated using the equation given below (sample refers to probe in the absence of protein and control refers to probe in the presence of protein). […]

[5] = 700 nM BAG1, 140 nM HSP72, 10 nM probe 11, 16 h incubation, geometric mean of at least 3 experiments, read-out: IC50 +BAG1
[6] = 180 nM HSP72, 10 nM probe 11, BAG1 buffer, 16 h incubation, geometric mean of at least 3 experiments, read-out: IC50 –BAG1

T1 sequence (P0DMV8 whole entry): as above
T1 sequence (Q99933 72-345 partner limits assumed): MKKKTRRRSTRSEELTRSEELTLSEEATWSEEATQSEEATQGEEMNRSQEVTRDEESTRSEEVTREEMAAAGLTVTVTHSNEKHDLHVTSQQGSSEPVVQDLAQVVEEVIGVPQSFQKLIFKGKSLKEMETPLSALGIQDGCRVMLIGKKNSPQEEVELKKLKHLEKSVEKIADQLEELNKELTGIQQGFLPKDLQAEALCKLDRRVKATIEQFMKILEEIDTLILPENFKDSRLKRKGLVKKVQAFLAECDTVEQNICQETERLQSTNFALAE

NC(=O)c1cn([C@@H]2O[C@H](CO)[C@@H](O)[C@H]2O)c2ncnc(N)c12 [compound 13, sangivamycin]
IC50 [1]: 1000 nM | change in affinity for HSP72/BAG1 complex compared to primary protein [1]: no significant change | IC50 [2]: 2400 nM

Nc1ncnc2c1nc(NCc1ccc3ncccc3c1)n2[C@@H]1O[C@H](COCc2ccc(C(F)(F)F)cc2)[C@@H](O)[C@H]1O [compound 2]
Kd [3]: 60 nM | IC50 ([2]; competition with FP-probe 11, HSP72, n = 3, read-out: pIC50 (converted)): 135 nM | IC50 ([2]; competition with FP-probe 11, HSP72, read-out: IC50): 137 nM

Nc1ncnc2c1nc(NCc1ccc3ncccc3c1)n2[C@@H]1O[C@H](CO)[C@@H](O)[C@H]1O [compound 12]
change in affinity for HSP72/BAG1 complex compared to primary protein [1]: no significant change | IC50 [1, 5]: 2000 nM | IC50 [2, 6]: 2000 nM

O=C(NCCCCCCNc1ncnc2c1nc(NCc1ccc3ncccc3c1)n2[C@@H]1O[C@H](COCc2ccc(C(F)(F)F)cc2)[C@@H](O)[C@H]1O)c1ccc(C(=O)O)c(-c2c3ccc(=O)cc-3oc3cc(O)ccc23)c1 [compound 10]
Z' ([4]; FP assay with HSP72): 0.36 | assay (binding) window ([4]; presence vs absence of 5 μM HSP72): ~30 mP

Nc1ncnc2c1ncn2[C@@H]1O[C@H](COP(=O)(O)OP(=O)(O)O)[C@@H](O)[C@H]1O [ADP]
IC50 [1, 5]: 2200 nM | pIC50 ([1]; 700 nM BAG1, n = 3): 5.66 ± 0.04 | decrease in affinity for the secondary complex compared to primary HSP72 ([1]; 700 nM BAG1 vs without BAG1): 6.8 fold | IC50 [2, 6]: 330 nM

Nc1ncnc2c1ncn2[C@@H]1O[C@H](COP(=O)(O)OP(=O)(O)OP(=O)(O)O)[C@@H](O)[C@H]1O [ATP]
IC50 [1, 5]: > 10000 nM | IC50 [2, 6]: 650 nM
